Results on two compounds are retold here after patent EP3375430A1, “FRAGRANCE COMPOSITIONS” (Takasago International Corporation, priority 2017, dated 2018).

The nature of data set [1]: Headspace concentration of fragrance ingredients over blotter (thermal desorption GC-MS). The settings on record: COM1 dosed at 20 wt%; after 8 hours. The class given is physicochemical. The method, then: The headspace concentration of individual ingredients of fragrance TAK, as formulated in either a conventional EdT (EdT1) or a fragrance composition of the invention (C1), was assessed by the method described below.
A 10 cm length was cut from a standard perfumers' blotter. A sample of 100µL volume was applied to the upper surface of the blotter with a syringe. The blotter was placed on a hot plate thermostatted at 32°C and left to equilibrate for 5 minutes. Two desorption tubes (6cm length 4mm internal diameter) each containing 2 cm length of Tenax TA adsorbent were fitted to the glass part of a headspace apparatus shown in figure 9. The glass part was fitted over the blotter, a metering pump was connected to one of the desorption tubes and air was drawn through the apparatus flushing the headspace over the blotter at a rate of 17mL/min. Sampling continued for about 16.5 minutes until 280mL of air had been extracted. Then the outlet desorption tube was analysed by gas chromatography as described below. The glass part was removed from the blotter which was left on the hotplate until the next sampling time when two fresh desorption tubes were fitted and the extraction procedure repeated for a further 280mL of extracted headspace.
• Initial Temp: 50°C • Initial Time: 5 min • Rate: 3°C /min • Final Temp: 250°C • Final Time: 20 min • Run Time: 91.67 min
• Column: HP-5MS 30m * 0.25mm * 0.25µm • Gas: Helium • Constant pressure 12.675 psi
• Initial Temp: -30°C • Equilibration Time: 0.05 min • Initial Time: 0.00 min • Rate 12°C / min • End Temp: 260°C • Hold Time: 10 min
Temperature program • Initial Temp: 35°C • Delay Time: 0.30 min • Initial Time: 0.00 min • Rate: 30°C / min • End Temp: 250°C • Hold Time: 5.00 min
TDU Settings • Transfer Temp: 250°C • Transfer Temp Mode: Fixed • Desorption Mode: splitless • Sample mode: Retain tube - standby cooling • Standby Temp: 50°C
Detector MS • MS 5973 • Mass range: 35 to 350 • Threshold: 150 • Mass Quad: 150°C • Mass Source: 230°C
Following the procedure of example 2, the headspace concentration of representative ingredients of fragrance COM1 was determined. COM1 was dosed at 5 and 20 % either in control EdT3 and EdT4 or in compositions of the invention C7 and C8, as shown in table 10.
The headspace concentration of individual ingredients of fragrance TAK (see Table 1), as formulated in either a conventional EdT (EdT1) or fragrance compositions of the invention (C14, C15), was assessed by the method described in example 2.

Data set [2] is described as follows: Amount of fragrance ingredients retained on paper blotter after evaporation (ethanol extraction, GC-MS). It counts as physicochemical. The settings on record: Table 9. The method, then:
A fragrance (hereafter fragrance TAK, the formulation of which is shown in table 1) was formulated in a typical Eau de Toilette (EdT1) or in fragrance compositions according to the invention (compositions C1 to C4), as shown in table 2. The amount of individual fragrance ingredients retained on paper substrate (blotter) after set time periods was assessed by the following method.
100µL samples of either EdT1 or compositions C1 to C4 were applied to 4.5cm long standard paper blotters with a microsyringe. Three replicate blotters were prepared for each extraction time. After the appropriate evaporation time each of the 3 blotters was transferred to a 30mL glass bottle. 3mL of ethanol and 50µL of a 1% solution of methyl decanoate in ethanol as an internal standard were added. The bottle was sealed and placed on a roller bed to extract the blotter for 1 hour. A sample of the extracting solution was transferred to a vial which was sealed and analysed by gas chromatography (GC 6890) with a Mass Spectrometer detector (MS 5973) using the method described below. The results of the three replicate measurements were averaged. At exact times the same extraction was repeated on the remaining blotters which were stored on a warm surface at 32°C open to the air to allow evaporation. The gas chromatography conditions were as given below.
• Initial Temp: 50°C • Initial Time: 2 min • Rate: 10°C /min • Final Temp: 280°C • Final Time: 5 min • Run Time: 30 min
• Column: HP-5MS 30m * 0.25mm * 0.25µm • Gas: Helium • Constant Pressure 18.55 psi
• Split mode Ratio 40:1 • Inlet Temp: 250°C
• MS 5973 • Mass range: 35 to 350 • Threshold: 100 • Mass Quad: 150°C • Mass Source: 230°C
To simplify the results the average amount of each fragrance ingredient from the 3 samples measured at time zero was set at 100% and all other measurements were then related to that value so tables 3 to 6 show decreasing amounts of fragrance ingredients as a percentage of the initial amount.
The method of example 1 was repeated using a commercial fragrance (hereafter fragrance COM1, the formulation of which is given in table 7) formulated in a typical Eau de Toilette (EdT2) or in fragrance compositions according to the invention (compositions C5 and C6), as shown in table 8.

Setting [3] is: fragrance COM1 in C5, T0 + 15 min.
Setting [4] is: fragrance COM1 in C5, T0 + 480 min.
[5] abbreviates: fragrance COM1 in C5, T0 +1440 min.
Where [6] appears, read: fragrance COM1 in C6, T0 + 15 min.
Where [7] appears, read: fragrance COM1 in C6, T0 + 480 min.
The mark [8] stands for this setting: fragrance COM1 in C6, T0 +1440 min.
[9] abbreviates: fragrance COM1 in EdT2, C5 or C6, T0, set at 100% (normalisation).
[10] abbreviates: fragrance COM1 in EdT2, T0 + 15 min.
The mark [11] stands for this setting: fragrance COM1 in EdT2, T0 + 480 min.
Setting [12] is: fragrance COM1 in EdT2, T0 +1440 min.

Each structure is given as a SMILES string.

Turning to `CC/C=C(\C)C(O)CCCCC` (stereo not drawn) [Undecavertol™, (E)-4-methyldec-3-en-5-ol], the “presence in the headspace of composition C8 compared to control EdT4” value in data set [1] is recorded as “more present”. For the same compound, the “amount of fragrance ingredient retained on blotter (percentage of the initial amount)” value (shortened to “amount … (percentage of the initial amount)”) worked out at 84.6% in data set [2] (setting [3]); 19.1% in data set [2] (setting [4]); 2.62% in data set [2] (setting [5]); 73.2% in data set [2] (setting [6]); 14% in data set [2] (setting [7]); 3.1% in data set [2] (setting [8]). Moreover, the “amount … (percentage of the initial amount)” value in data set [2] (setting [9]) came out at 100%; in data set [2] (setting [10]), 75.7%; in data set [2] (setting [11]) it was 8.41%; in data set [2] (setting [12]), 4.93%.

On to `CC=CC(=O)C1=C(C)CCCC1(C)C` [Damascone beta], for which the “amount … (percentage of the initial amount)” value in data set [2] (setting [3]) is 81.9%; in data set [2] (setting [4]) it was 20.5%; in data set [2] (setting [5]), 2.12%; in data set [2] (setting [6]), 74.8%; in data set [2] (setting [7]), 14.7%; in data set [2] (setting [8]), 1.9%. Also, the “amount … (percentage of the initial amount)” value is listed as 100% in data set [2] (setting [9]), 78.2% in data set [2] (setting [10]), 10.6% in data set [2] (setting [11]) and 4.25% in data set [2] (setting [12]).
